Experimental data taken from ChEMBL document CHEMBL4507260 (2021).

Columns and labels:
Settings in all cases: Compound concentration 1000.0 nM
[1] = tested on: Tyrosine-protein kinase ABL1 (Homo sapiens), P00519 [F317L]
[2] = tested on: Tyrosine-protein kinase ABL1 (Homo sapiens), P00519 [Q252H]
[3] = tested on: Tyrosine-protein kinase ABL1 (Homo sapiens), P00519 [Q252H]; remark: listed apart in the source
[4] = target: RAC-beta serine/threonine-protein kinase (Homo sapiens) (UniProt P31751)
[5] = target: Ankyrin repeat and protein kinase domain-containing protein 1 (Homo sapiens) (UniProt Q8NFD2)
[6] = target: Aurora kinase C (Homo sapiens) (UniProt Q9UQB9)
[7] = target: Calcium/calmodulin-dependent protein kinase type 1D (Homo sapiens) (UniProt Q8IU85)
[8] = target: Cyclin-dependent kinase 11B (Homo sapiens) (UniProt P21127)
[9] = target: Cyclin-dependent kinase 13 (Homo sapiens) (UniProt Q14004)
[10] = target: Cyclin-dependent kinase 19 (Homo sapiens) (UniProt Q9BWU1)
[11] = target: Dual specificity protein kinase CLK2 (Homo sapiens) (UniProt P49760)
[12] = target: Casein kinase I isoform alpha (Homo sapiens) (UniProt P48729)
[13] = target: Casein kinase II subunit alpha (Homo sapiens) (UniProt P68400)
[14] = tested on: Epidermal growth factor receptor (Homo sapiens), P00533 [G719S]
[15] = tested on: Epidermal growth factor receptor (Homo sapiens), P00533 [L861Q]
[16] = target: Ephrin type-A receptor 5 (Homo sapiens) (UniProt P54756)
[17] = target: Ephrin type-A receptor 6 (Homo sapiens) (UniProt Q9UF33)
[18] = target: Mitogen-activated protein kinase 6 (Homo sapiens) (UniProt Q16659)
[19] = tested on: Receptor-type tyrosine-protein kinase FLT3 (Homo sapiens), P36888 [UNDEFINED MUTATION]
[20] = target: Rhodopsin kinase GRK7 (Homo sapiens) (UniProt Q8WTQ7)
[21] = target: Inhibitor of nuclear factor kappa-B kinase subunit beta (Homo sapiens) (UniProt O14920)
[22] = target: Insulin receptor (Homo sapiens) (UniProt P06213)
[23] = target: Mitogen-activated protein kinase 8 (Homo sapiens) (UniProt P45983)
[24] = tested on: Mast/stem cell growth factor receptor Kit (Homo sapiens), P10721 [V559D,T670I]
[25] = target: Serine/threonine-protein kinase LATS1 (Homo sapiens) (UniProt O95835)
[26] = target: Mitogen-activated protein kinase kinase kinase 2 (Homo sapiens) (UniProt Q9Y2U5)
[27] = target: Hepatocyte growth factor receptor (Homo sapiens) (UniProt P08581)
[28] = target: MAP kinase-interacting serine/threonine-protein kinase 2 (Homo sapiens) (UniProt Q9HBH9)
[29] = target: Serine/threonine-protein kinase Nek9 (Homo sapiens) (UniProt Q8TD19)
[30] = target: Phosphatidylinositol 4,5-bisphosphate 3-kinase catalytic subunit gamma isoform (Homo sapiens) (UniProt P48736)
[31] = target: Serine/threonine-protein kinase pim-3 (Homo sapiens) (UniProt Q86V86)
[32] = target: cAMP-dependent protein kinase catalytic subunit beta (Homo sapiens) (UniProt P22694)
[33] = target: Serine/threonine-protein kinase PLK4 (Homo sapiens) (UniProt O00444)
[34] = target: Serine/threonine-protein kinase SIK3 (Homo sapiens) (UniProt Q9Y2K2)
[35] = target: Serine/threonine-protein kinase RIO3 (Homo sapiens) (UniProt O14730)
[36] = target: Rho-associated protein kinase 1 (Homo sapiens) (UniProt Q13464)
[37] = target: Ribosomal protein S6 kinase alpha-3 (Homo sapiens) (UniProt P51812)
[38] = target: Ribosomal protein S6 kinase alpha-2 (Homo sapiens) (UniProt Q15349)
[39] = target: Ribosomal protein S6 kinase alpha-2 (Homo sapiens) (UniProt Q15349); remark: listed apart in the source
[40] = target: Serine/threonine-protein kinase Sgk2 (Homo sapiens) (UniProt Q9HBY8)
[41] = target: Serine/threonine-protein kinase 36 (Homo sapiens) (UniProt Q9NRP7)
[42] = target: Serine/threonine-protein kinase TBK1 (Homo sapiens) (UniProt Q9UHD2)
[43] = target: Tyrosine-protein kinase Tec (Homo sapiens) (UniProt P42680)
[44] = target: Serine/threonine-protein kinase tousled-like 2 (Homo sapiens) (UniProt Q86UE8)
[45] = target: Non-receptor tyrosine-protein kinase TNK1 (Homo sapiens) (UniProt Q13470)

Measured: residual activity

Sequence of Ribosomal protein S6 kinase alpha-2 (Homo sapiens) (Q15349 whole entry): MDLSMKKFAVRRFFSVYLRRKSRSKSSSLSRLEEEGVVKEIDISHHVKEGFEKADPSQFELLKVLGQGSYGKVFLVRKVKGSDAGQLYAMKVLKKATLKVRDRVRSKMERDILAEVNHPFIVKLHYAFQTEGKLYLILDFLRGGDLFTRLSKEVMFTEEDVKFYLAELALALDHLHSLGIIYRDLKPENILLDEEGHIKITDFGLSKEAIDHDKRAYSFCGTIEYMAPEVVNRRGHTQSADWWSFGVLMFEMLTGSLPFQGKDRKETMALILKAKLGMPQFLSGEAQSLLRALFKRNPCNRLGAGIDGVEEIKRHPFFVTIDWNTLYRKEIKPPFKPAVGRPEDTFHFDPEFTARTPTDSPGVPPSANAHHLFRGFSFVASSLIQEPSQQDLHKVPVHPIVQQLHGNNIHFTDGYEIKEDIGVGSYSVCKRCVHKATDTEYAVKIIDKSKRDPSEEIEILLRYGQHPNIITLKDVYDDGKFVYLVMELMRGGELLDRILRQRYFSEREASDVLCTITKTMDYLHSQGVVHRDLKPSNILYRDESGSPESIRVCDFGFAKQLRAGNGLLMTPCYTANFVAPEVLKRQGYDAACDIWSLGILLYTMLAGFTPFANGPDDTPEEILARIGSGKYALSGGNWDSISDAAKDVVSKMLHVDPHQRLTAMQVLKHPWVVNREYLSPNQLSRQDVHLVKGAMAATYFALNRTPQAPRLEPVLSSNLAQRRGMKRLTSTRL
Sequence of Aurora kinase C (Homo sapiens) (Q9UQB9 whole entry): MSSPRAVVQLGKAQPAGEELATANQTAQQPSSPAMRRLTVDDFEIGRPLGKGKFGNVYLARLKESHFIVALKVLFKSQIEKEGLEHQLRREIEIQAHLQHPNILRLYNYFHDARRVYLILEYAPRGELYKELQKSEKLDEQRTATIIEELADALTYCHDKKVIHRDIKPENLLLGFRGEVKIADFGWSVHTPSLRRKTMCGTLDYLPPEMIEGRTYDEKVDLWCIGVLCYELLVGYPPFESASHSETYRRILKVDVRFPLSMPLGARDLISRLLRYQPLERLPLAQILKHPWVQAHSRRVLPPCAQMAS
Sequence of Mitogen-activated protein kinase 6 (Homo sapiens) (Q16659 whole entry): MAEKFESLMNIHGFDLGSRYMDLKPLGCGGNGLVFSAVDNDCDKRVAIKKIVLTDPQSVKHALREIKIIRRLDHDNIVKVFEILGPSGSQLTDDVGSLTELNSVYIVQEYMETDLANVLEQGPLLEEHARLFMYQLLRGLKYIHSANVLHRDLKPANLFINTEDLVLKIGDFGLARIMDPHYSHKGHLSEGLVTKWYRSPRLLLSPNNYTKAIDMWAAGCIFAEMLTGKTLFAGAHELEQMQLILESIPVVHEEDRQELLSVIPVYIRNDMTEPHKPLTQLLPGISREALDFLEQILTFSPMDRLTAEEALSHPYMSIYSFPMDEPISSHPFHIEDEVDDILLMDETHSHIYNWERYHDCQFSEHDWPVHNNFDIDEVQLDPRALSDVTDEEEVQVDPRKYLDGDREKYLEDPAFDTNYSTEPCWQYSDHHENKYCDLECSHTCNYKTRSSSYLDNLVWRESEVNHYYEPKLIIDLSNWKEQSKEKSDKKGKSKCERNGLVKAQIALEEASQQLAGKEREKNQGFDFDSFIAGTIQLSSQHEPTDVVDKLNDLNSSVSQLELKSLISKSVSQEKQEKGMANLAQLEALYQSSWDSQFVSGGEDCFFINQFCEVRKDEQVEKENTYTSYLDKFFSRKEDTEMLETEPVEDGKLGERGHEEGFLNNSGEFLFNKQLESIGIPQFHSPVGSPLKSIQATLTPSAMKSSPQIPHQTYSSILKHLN
Sequence of Serine/threonine-protein kinase RIO3 (Homo sapiens) (O14730 whole entry): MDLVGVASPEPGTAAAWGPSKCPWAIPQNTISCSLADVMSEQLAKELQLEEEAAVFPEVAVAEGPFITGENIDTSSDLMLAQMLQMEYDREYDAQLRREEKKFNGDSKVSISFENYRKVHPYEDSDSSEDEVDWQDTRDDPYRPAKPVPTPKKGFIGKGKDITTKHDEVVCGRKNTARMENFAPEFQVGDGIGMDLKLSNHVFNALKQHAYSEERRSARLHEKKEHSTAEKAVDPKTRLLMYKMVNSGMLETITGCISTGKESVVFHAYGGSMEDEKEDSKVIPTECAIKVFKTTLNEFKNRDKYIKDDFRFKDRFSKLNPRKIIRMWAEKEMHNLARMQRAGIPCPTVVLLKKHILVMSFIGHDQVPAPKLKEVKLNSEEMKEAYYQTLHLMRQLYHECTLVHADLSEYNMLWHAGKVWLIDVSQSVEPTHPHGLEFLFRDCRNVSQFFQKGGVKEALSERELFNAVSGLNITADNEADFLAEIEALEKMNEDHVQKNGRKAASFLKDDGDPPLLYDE
Sequence of Mitogen-activated protein kinase kinase kinase 2 (Homo sapiens) (Q9Y2U5 whole entry): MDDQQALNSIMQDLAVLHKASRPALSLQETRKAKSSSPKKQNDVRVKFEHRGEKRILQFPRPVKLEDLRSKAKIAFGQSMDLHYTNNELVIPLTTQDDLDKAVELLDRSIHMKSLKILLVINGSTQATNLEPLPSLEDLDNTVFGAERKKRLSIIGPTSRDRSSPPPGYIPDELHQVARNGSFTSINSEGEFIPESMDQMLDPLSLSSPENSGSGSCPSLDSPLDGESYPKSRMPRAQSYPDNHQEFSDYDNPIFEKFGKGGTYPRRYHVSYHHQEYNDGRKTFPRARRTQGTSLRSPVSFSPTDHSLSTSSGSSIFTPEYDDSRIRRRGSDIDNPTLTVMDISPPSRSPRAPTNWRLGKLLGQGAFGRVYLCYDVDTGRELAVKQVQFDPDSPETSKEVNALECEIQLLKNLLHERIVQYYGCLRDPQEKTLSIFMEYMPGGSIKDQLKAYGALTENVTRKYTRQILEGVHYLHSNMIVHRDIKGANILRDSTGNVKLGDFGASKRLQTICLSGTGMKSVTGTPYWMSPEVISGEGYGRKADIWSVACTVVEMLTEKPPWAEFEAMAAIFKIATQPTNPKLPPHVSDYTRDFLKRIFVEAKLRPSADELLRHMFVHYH
Sequence of Serine/threonine-protein kinase 36 (Homo sapiens) (Q9NRP7 whole entry): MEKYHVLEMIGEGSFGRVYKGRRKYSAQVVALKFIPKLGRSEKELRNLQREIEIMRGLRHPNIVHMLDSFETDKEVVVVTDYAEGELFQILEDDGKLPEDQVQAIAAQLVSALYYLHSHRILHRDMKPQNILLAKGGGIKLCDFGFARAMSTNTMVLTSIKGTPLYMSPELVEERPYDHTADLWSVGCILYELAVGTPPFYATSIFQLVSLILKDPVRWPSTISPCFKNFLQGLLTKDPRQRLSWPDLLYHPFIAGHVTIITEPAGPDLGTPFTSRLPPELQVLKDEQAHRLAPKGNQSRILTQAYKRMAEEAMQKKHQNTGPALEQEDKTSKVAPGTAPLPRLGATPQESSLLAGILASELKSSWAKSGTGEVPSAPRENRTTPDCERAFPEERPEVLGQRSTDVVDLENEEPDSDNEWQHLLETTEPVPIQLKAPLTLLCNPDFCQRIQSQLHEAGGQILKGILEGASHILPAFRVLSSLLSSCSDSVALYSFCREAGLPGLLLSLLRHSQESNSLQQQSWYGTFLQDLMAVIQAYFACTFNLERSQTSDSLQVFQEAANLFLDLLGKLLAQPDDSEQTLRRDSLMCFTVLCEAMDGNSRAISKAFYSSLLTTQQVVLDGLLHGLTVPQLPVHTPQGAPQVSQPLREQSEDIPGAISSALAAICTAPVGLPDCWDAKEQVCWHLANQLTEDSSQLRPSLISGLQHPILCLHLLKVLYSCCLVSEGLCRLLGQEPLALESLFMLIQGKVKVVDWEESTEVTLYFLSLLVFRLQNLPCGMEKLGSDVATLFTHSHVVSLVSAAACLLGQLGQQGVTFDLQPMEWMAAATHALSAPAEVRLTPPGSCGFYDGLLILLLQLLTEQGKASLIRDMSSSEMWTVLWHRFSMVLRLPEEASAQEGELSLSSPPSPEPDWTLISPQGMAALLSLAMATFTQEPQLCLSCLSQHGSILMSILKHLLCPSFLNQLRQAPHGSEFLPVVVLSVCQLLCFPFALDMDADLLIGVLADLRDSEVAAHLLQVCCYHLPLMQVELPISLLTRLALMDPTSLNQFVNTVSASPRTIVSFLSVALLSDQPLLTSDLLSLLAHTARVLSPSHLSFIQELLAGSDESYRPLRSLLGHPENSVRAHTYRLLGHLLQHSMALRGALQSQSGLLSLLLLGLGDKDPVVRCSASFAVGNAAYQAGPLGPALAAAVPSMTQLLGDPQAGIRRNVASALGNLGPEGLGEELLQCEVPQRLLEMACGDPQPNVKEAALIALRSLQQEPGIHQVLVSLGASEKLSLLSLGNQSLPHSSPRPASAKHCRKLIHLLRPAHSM
Sequence of Cyclin-dependent kinase 19 (Homo sapiens) (Q9BWU1 whole entry): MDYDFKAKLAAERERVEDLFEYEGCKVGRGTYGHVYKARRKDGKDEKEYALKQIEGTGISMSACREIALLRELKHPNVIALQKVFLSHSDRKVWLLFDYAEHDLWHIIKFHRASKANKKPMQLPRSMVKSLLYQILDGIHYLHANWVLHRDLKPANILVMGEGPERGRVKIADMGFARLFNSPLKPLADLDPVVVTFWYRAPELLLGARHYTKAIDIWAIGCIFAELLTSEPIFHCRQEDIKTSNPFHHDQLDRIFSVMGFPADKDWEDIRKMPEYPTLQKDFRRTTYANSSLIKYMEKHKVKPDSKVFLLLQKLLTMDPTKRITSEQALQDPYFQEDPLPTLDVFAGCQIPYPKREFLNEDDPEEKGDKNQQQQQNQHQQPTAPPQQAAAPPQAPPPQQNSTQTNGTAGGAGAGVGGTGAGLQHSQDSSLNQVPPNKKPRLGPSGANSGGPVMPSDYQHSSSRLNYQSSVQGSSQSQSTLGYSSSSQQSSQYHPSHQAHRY

CSc1cccnc1N1CCN(Cc2nc3ccccc3[nH]2)CC1 [A-769]
inactive: [1] 100% | [2] 67% | [3] 71% | [4] 98% | [5] 92% | [6] 100% | [7] 100% | [8] 100% | [9] 85% | [10] 96% | [11] 100% | [12] 72% | [13] 81% | [14] 98% | [15] 100% | [16] 100% | [17] 100% | [18] 100% | [19] 73% | [20] 87% | [21] 86% | [22] 85% | [23] 77% | [24] 100% | [25] 100% | [26] 82% | [27] 100% | [28] 75% | [29] 100% | [30] 64% | [31] 94% | [32] 100% | [33] 84% | [34] 100% | [35] 100% | [36] 93% | [37] 83% | [38] 100% | [39] 100% | [40] 81% | [41] 97% | [42] 100% | [43] 90% | [44] 100% | [45] 84%

c1ccc(N2CCN(Cc3nc4ccccc4[nH]3)CC2)nc1 [ABT-724]
inactive: [1] 100% | [2] 93% | [3] 100% | [4] 100% | [5] 100% | [6] 100% | [7] 96% | [8] 100% | [9] 100% | [10] 87% | [11] 89% | [12] 93% | [13] 97% | [14] 91% | [15] 74% | [16] 100% | [17] 100% | [18] 100% | [19] 100% | [20] 100% | [21] 100% | [22] 100% | [23] 100% | [24] 95% | [25] 100% | [26] 100% | [27] 100% | [28] 100% | [29] 100% | [30] 100% | [31] 100% | [32] 93% | [33] 99% | [34] 91% | [35] 100% | [36] 100% | [37] 100% | [38] 99% | [39] 100% | [40] 100% | [41] 84% | [42] 77% | [43] 100% | [44] 100% | [45] 59%
